The experiment in a line: MIC of test compounds against various organisms. It is filed as cell-based. The method, then: The MIC (μg/ml) of test compounds against various organisms was determined including:
S. epidermidis CL7, S. aureus WCUH29, S. pneumoniae 1629, S. pyogenes CN10, H. influenzae ATCC 49247, E. faecalis 2, M. catarrhalis Ravasio, E. coli 7623.

[1] abbreviates: versus all these organisms (panel of 8 strains), read-out: MIC.

MIC data for 14 molecules are collected here from US7622481B2, “Antibacterial compounds” (priority 2003, dated 2009).

Molecules are shown by their SMILES. Counter-ions that a name gives are not always drawn. Like-named read-outs stand apart in the source and are kept apart here.

For the molecule `COc1cccc2nccc(NC(=O)[C@]3(O)CC[C@@H](NCc4ccc5c(n4)NC(=O)CS5)CC3)c12` [Example 28, 1-Hydroxy-t-4-[(3-oxo-3,4-dihydro-2H-pyrido[3,2-b][1,4]thiazin-6-ylmethyl)-amino]-r-cyclohexanecarboxylic acid (5-methoxy-quinolin-4-yl)-amide dihydrochloride], the MIC under setting [1] was no more than 8 µg/mL.

For `Cc1ccc2cccc(NC(=O)[C@]3(O)CC[C@@H](NCc4ccc5c(n4)NC(=O)CS5)CC3)c2n1` [Example 19, 1-Hydroxy-t-4-[(3-oxo-3,4-dihydro-2H-pyrido[3,2-b][1,4]thiazin-6-ylmethyl)-amino]-r-cyclohexanecarboxylic acid (2-methyl-quinolin-8-yl)-amide dihydrochloride], under setting [1], the MIC is no more than 2 µg/mL.

With `COc1ccc2nccc(NC(=O)[C@@H]3CC[C@@H](NCc4nc5c(cc4F)SCC(=O)N5)[C@@H](F)C3)c2n1` [Example 32, (1R,3S,4R)-3-Fluoro-4[(7-fluoro-3-oxo-3,4-dihydro-2H-pyrido[3,2-b][1,4]thiazin-6-ylmethyl)-amino]-cyclohexanecarboxylic acid (6-methoxy-[1,5]naphthyridin-4-yl)-amide dihydrochloride], the MIC is no more than 2 µg/mL.

Turning to `N#Cc1ccc2cccc(NC(=O)[C@@H]3CC[C@@H](NCc4ccc5c(n4)NC(=O)CS5)[C@H](O)C3)c2n1` [Example 14, (1R,3R,4R)-3-Hydroxy-4-[(3-oxo-3,4-dihydro-2H-pyrido[3,2-b][1,4]thiazin-6-ylmethyl)-amino]-cyclohexanecarboxylic acid (2-cyano-quinolin-8-yl)-amide hydrochloride], under setting [1], the MIC was no more than 2 µg/mL.

On to `COc1nccc2cccc(NC(=O)[C@]3(O)CC[C@@H](NCc4ccc5c(n4)NC(=O)CS5)CC3)c12` [Example 27, 1-Hydroxy-t-4-[(3-oxo-3,4-dihydro-2H-pyrido[3,2-b][1,4]thiazin-6-ylmethyl)-amino]-r-cyclohexanecarboxylic acid (1-methoxy-isoquinolin-8-yl)-amide hydrochloride], for which, under setting [1], the MIC is no more than 8 µg/mL.

`Cc1ccc2cccc(NC(=O)[C@]3(O)CC[C@@H](NCc4cc5c(cn4)OCC(=O)N5)CC3)c2n1` [Example 22, 1-Hydroxy-t-4-[(2-oxo-2,3-dihydro-1H-pyrido[3,4-b][1,4]oxazin-7-ylmethyl)-amino]-r-cyclohexanecarboxylic acid (2-methyl-quinolin-8-yl)-amide dihydrochloride]: the MIC under setting [1] is no more than 2 µg/mL.

On to `O=C1CSc2ccc(CN[C@H]3CC[C@](O)(C(=O)Nc4ccnc5ccsc45)CC3)nc2N1` [Example 1, 1 -Hydroxy-t-4-[(3-oxo-3,4-dihydro-2H-pyrido[3,2-b][1 ,4]thiazin-6-ylmethyl) -amino]-r-cyclohexanecarboxylic acid thieno[3,2-b]pyridin-7-ylamide dihydrochioride], for which the minimal inhibitory concentration (MIC) under setting [1] is no more than 8 µg/mL.

With `O=C1CSc2ccc(CN[C@H]3CC[C@](O)(C(=O)Nc4ccnc5c4OCCO5)CC3)nc2N1` [Example 2, 1-Hydroxy-t-4-[(3-oxo-3,4-dihydro-2H-pyrido[3,2-b][1,4]thiazin-6-ylmethyl)-amino]-r-cyclohexanecarboxylic acid (2,3-dibydro-[1,4]dioxino[2,3-b]pyridin-8-yl)-amide dihydrochloride], under “versus at least one of these organisms (panel of 8 strains), read-out: MIC”, the MIC was no more than 16 µg/mL.

As to `O=C1CSc2ccc(CN[C@H]3CC[C@H](C(=O)Nc4ccnc5ccccc45)CC3)nc2N1` [Example 3, trans-4-[(3-Oxo-3,4-dihydro-2H-pyrido[3,2-b][1,4]thiazin-6-ylmethyl)-amino]-cyclohexanecarboxylic acid quinolin-4-ylamide dihydrochloride], the MIC was no more than 8 µg/mL.

`Cc1ccc2cccc(NC(=O)[C@H]3CC[C@H](NCc4cc5c(cn4)OCCO5)CC3)c2n1` [Example 36, t-4-[(2,3-Dihydro-[1,4]dioxino[2,3-c]pyridin-7-ylmethyl)-amino]-cyclohexanecarboxylic acid (2-methyl-quinolin-8-yl)-amide dihydrochloride]: the MIC under setting [1] is no more than 8 µg/mL.

For the molecule `N#Cc1ccc2cccc(NC(=O)[C@@H]3CC[C@@H](NCc4cc5c(cn4)OCCO5)[C@@H](O)C3)c2n1` [Example 37, (1R,3S,4R)-4-[(2,3-Dihydro-[1,4]dioxino[2,3-c]pyridin-7-ylmethyl)-amino]-3-hydroxy-cyclohexanecarboxylic acid (2-cyano-quinolin-8-yl)-amide hydrochloride], the MIC was no more than 2 µg/mL.

For `N#Cc1ccc2cccc(NC(=O)[C@]3(O)CC[C@@H](NCc4ccc5c(n4)NC(=O)CS5)CC3)c2n1` [Example 10, 1-Hydroxy-t-4-[(3-oxo-3,4-dihydro-2H-pyrido[3,2-b][1,4]thiazin-6-ylmethyl)-amino]-r-cyclohexanecarboxylic acid (2-cyano-quinolin-8-yl)-amide dihydrochloride], the MIC under setting [1] is no more than 2 µg/mL.

Take `COc1ccc2cccc(NC(=O)[C@]3(O)CC[C@@H](NCc4nc5c(cc4Cl)SCC(=O)N5)CC3)c2n1` [Example 24, t-4-[(7-Chloro-3-oxo-3,4-dihydro-2H-pyrido[3,2-b][1,4]thiazin-6-ylmethyl)-amino]-1-hydroxy-r-cyclohexanecarboxylic acid (2-methoxy-quinolin-8-yl)-amide dihydrochloride]: under “versus some of these organisms (panel of 8 strains), read-out: MIC”, the MIC is no more than 2 µg/mL.

For `COc1ccc2cccc(NC(=O)[C@]3(O)CC[C@@H](NCc4nc5c(cc4F)SCC(=O)N5)CC3)c2n1` [Example 23, t-4-[(7-Fluoro-3-oxo-3,4-dihydro-2H-pyrido[3,2-b][1,4]thiazin-6-ylmethyl)-amino]-1-hydroxy-r-cyclohexanecarboxylic acid (2-methoxy-quinolin-8-yl)-amide dihydrochloride], the MIC under setting [1] was no more than 8 µg/mL.

Broadly, the MIC is the smallest concentration in the dilution series that meets the test's criterion for growth inhibition.
